A short description of data set [1]: Liver and body weight of nude mice bearing Mz-ChA-1 tumors. The format is in vivo, nude (nu/nu) mice. The note with it: 4 mg/kg BW IP three times a week. How it is done:
Experiments were performed to evaluate the in vivo effect of melatonin on the growth of cholangiocarcinoma cell lines implanted in the flanks of athymic mice (Francis H et al., 2009). Male BALB/c 6-wk-old nude (nu/nu) mice (Taconic Farms. Hudson, N.Y.) were kept in a temperature-controlled environment (20-22° C.) with 12-hr light-dark cycles, fed ad libitum standard mouse chow, and with free access to drinking water. Mz-ChA-1 cells (5×10^6) were suspended in 0.2 ml of extracellular matrix gel and injected subcutaneously in the rear flanks of the nude mice. After the establishment of the tumor (one week with a tumor size of ˜5 mm^3) mice (n=4) were treated with vehicle (5% ethanol in water) or melatonin (4 mg/kg BW, dissolved in 5% aqueous ethanol solution) (Sewerynek et al., 1995) by IP injections three times a week. Tumor variables were measured three times a week by an electronic caliper, and volume was determined as follows: tumor volume (mm^3)=0.5×[length (mm)×width (mm)×height (mm)]. The measurements started from the first week when the tumor mass was established. After 43 days of treatment, were anesthetized with sodium pentobarbital (50 mg/kg BW IP) and tumor tissues were harvested from the flanks of the mice. Heart, liver, and kidney tissues were collected for evaluation of organ damage by H&E staining of paraffin-embedded sections ([…]). All experiments were conducted under the guidelines of the Scott & White and Texas A&M HSC IACUC Committee. Tumors were allowed to grow until maximum allowable tumor burden was reached as set forth by the Scott & White and Texas A&M HSC IACUC tumor burden policy. Tumor tissues were fixed for 4 hr in 10% buffered formalin and embedded in low-temperature fusion paraffin. […] Semiquantitative analysis for these markers was evaluated by image-analysis software, Image-Pro Plus (Media Cybernetics, Silver Springs, Md.) (Lejeune et al., 2008). Three randomly chosen fields were calculated for statistics.

Another data set has as its system miR-34a. The experiment in a line: miRNA expression in melatonin treated xenograft tumor tissues. The note with it: melatonin treatment in vivo. On the procedure:
Methods: miRNA expression in normal human cholangiocytes (HiBECs), and the CCA cell lines Mz-ChA-1 and TFK cells, as well as melatonin treated xenograft tumor tissues were evaluated using a hybridization-based miRNA microarray. The expression of selected mature miRNAs was also assessed by real-time PCR. The effect of selected miRNAs on cell growth and invasion was assessed using miRNA modulators to alter cellular expression. Cell migration and invasion through a matrigel layer was quantitated using commercial assays. BCL-2, period homolog 1 (PER1) and tissue inhibitor of metalloproteinases 3 (TIMP-3) mRNA expression was quantitated by real-time PCR analysis.

The test system of a further data set is CCA. In words: Sensitization of CCA to 5-fluorouracil and gemcitabine cytotoxicity in vitro. The format is cell-based.
The next data set deals with T1, AANAT (Rattus norvegicus, UniProt Q64666).
T1 construct: the expression of AANAT in liver sections and cholangiocytes from the selected groups of animals; from tissue; host or cells: Male Fischer 344 rats: liver sections, total liver, isolated cholangiocytes, pineal gland, small intestine, serum
T1 sequence (Q64666 whole entry): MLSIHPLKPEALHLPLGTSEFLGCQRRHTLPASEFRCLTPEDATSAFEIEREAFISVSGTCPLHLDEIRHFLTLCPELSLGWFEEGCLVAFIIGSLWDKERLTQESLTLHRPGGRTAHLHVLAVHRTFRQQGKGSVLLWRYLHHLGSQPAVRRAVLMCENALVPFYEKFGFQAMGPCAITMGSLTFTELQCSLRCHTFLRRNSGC
In words: Melatonin levels in serum and cholangiocyte supernatant (ELISA) of Morpholino-treated rats. The format is in vivo. As to conditions: normal rats. On the procedure: In separate experiments, normal rats treated with Vivo-Morpholino sequences of AANAT (5'-[…] NO:1), to reduce the biliary expression of AANAT) or Morpholino mismatched (5'-[…] NO:2)) (Gene Tools LCC) (1 mg/Kg BW/day) for 1 week via an implanted portal vein catheter. Serum, liver tissue, cholangiocytes, kidney, spleen, small intestine, stomach and heart were collected. Since our goal was to knock-down AANAT expression in the liver without inhibiting AANAT expression in other organs, we used a lower dose (1 mg/Kg/day) of Vivo-Morpholino than that described in the original study (3.0 mg/kg/day (Arora et al., 2002). This approach minimizes the amount of Vivo-Morpholino that circulates outside of the liver after slow infusion into the portal vein. See below for the surgical procedure for the implantation of the portal vein catheter by which AANAT Vivo-Morpholino or Morpholino mismatched was administered. Melatonin levels in serum and medium of primary cultures of isolated cholangiocytes were determined by ELISA kits (Genway, San Diego, Calif.). Supernatants were obtained from cholangiocytes (1×10^7 cells/ml) that were incubated for 6 hours at 37° C. (Glaser et al., 2008).

The subject of another data set is cholangiocytes. In words: Biliary proliferation (PCNA, IBDM) and apoptosis (TUNEL) in Morpholino-treated rats. The format is in vivo, rat. The note with it: normal rats, 1 mg/Kg BW/day for 1 week via portal vein catheter. How it is done: In separate experiments, normal rats treated with Vivo-Morpholino sequences of AANAT (5′-[…] (SEQ ID NO:1), to reduce the biliary expression of AANAT) or Morpholino mismatched (5′-[…] (SEQ ID NO:2)) (Gene Tools LCC) (1 mg/Kg BW/day) for 1 week via an implanted portal vein catheter. Serum, liver tissue, cholangiocytes, kidney, spleen, small intestine, stomach and heart were collected. Since our goal was to knock-down AANAT expression in the liver without inhibiting AANAT expression in other organs, we used a lower dose (1 mg/Kg/day) of Vivo-Morpholino than that described in the original study (3.0 mg/kg/day (Arora et al., 2002). This approach minimizes the amount of Vivo-Morpholino that circulates outside of the liver after slow infusion into the portal vein. See below for the surgical procedure for the implantation of the portal vein catheter by which AANAT Vivo-Morpholino or Morpholino mismatched was administered.
Biliary proliferation was determined by measurement of the percentage of PCNA-positive cholangiocytes by immunohistochemistry, and intrahepatic bile duct mass (IBDM) by immunohistochemistry for CK-19 (Mancinelli et al., 2010). Biliary apoptosis was evaluated by semiquantitative terminal deoxynucleotidyltransferase biotin-dUTP nick-end labeling (TUNEL) kit (Chemicon International, Inc., Temecula, Calif.) (Mancinelli et al., 2010). IBDM was determined as the area occupied by CK-19 positive-bile duct/total area×100 (Mancinelli et al., 2010). The morphological changes/damage in liver, spleen, kidney, heart, stomach, and small intestine were evaluated from AANAT Vivo-Morpholino- or mismatch-treated rats by H&E staining. The serum levels of the transaminases, glutamate pyruvate transaminases (SGPT) and glutamic oxaloacetic transaminase (SGOT), alkaline phosphatase (ALP) and total bilirubin were evaluated using a Dimension RxL Max Integrated Chemistry system (Dade Behring Inc., Deerfield Ill.), Chemistry Department, Scott & White.

Marks after values point to notes of the source that are not given here. Bounds are passed on as bounds.

In the case of `COc1ccc2[nH]cc(CCNC(C)=O)c2c1` [melatonin], in data set [1], the Body weight is 35.25 ± 0.73 gm, the Liver to body is on record as 8.01% ± 0.21 and the Liver weight was determined as 2.82 ± 0.13 gm. Also, the “miR-34a expression in Mz-ChA-1 xenograft tumor” value in the data set with miR-34a is listed as “significant reduction”. Further, in the data set on CCA, the “Sensitization of CCA to the cytotoxic effects of 5-fluorouracil (5-FU)” value is about 2 fold and the “Sensitization of CCA to the cytotoxic effects of gemcitabine” value is reported as about 2 fold.
On to “AANAT Vivo-Morpholino: Vivo-Morpholino sequence of AANAT 5′-GTTCCCCAGCTTTGGAAGTGGTCCC (SEQ ID NO:1), to reduce the biliary expression of AANAT (all phosphorodiamidate morpholino (PMO); Vivo-Morpholino delivery moiety attached, position not given here, further chemistry not fully specified)”, for which the Melatonin supernatant in the data set with AANAT (cholangiocyte supernatant, 6 hours at 37° C., 1 mg/Kg BW/day for 1 week) is recorded as 3.2 ± 0.2^a pg/ml. For the same molecule, the Melatonin serum in the data set with AANAT (1 mg/Kg BW/day for 1 week via portal vein catheter) is recorded as 58.4 ± 8.7^a pg/ml. For the same molecule, in the data set on cholangiocytes, the “% IBDM” value turned out to be 0.45 ± 0.10 %, the “% PCNA-positive cholangiocytes” value stood at 8.98 ± 0.6 % and the “% apoptotic cholangiocytes” value is under 5%.
